# Assay results taken from US10906889B2, “Polycyclic inhibitors of cyclin-dependent kinase 7 (CDK7)” (Dana-Farber Cancer Institute, Inc., priority 2013, dated 2021).
# How the values were obtained:
# CDK7 = target: T1, CDK7 (Homo sapiens, UniProt P50613); assay: Adapta kinase assay (Life Technologies), CDK7; type: biochemical; details: Table 1C, co-factors cyclin H and MNAT1, read-out: CDK7 IC50
# T1 construct: purchased Life Technologies (assay service)
# Jurkat cells = assay: Cell proliferation (CellTiter-Glo, 72 hour), Jurkat; type: cell-based; details: Homo sapiens, blood cancer cell line
# T1 sequence (P50613 whole entry): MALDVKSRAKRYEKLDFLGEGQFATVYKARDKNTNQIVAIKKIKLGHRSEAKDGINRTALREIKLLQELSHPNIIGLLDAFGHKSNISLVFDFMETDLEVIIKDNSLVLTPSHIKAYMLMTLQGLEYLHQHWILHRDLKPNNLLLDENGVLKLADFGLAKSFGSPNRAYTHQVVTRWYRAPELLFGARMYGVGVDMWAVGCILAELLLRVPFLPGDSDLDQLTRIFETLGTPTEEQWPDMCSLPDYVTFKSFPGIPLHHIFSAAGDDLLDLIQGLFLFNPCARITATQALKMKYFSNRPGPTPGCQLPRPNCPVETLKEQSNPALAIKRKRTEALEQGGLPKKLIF
# T1 sequence (P51946 whole entry partner): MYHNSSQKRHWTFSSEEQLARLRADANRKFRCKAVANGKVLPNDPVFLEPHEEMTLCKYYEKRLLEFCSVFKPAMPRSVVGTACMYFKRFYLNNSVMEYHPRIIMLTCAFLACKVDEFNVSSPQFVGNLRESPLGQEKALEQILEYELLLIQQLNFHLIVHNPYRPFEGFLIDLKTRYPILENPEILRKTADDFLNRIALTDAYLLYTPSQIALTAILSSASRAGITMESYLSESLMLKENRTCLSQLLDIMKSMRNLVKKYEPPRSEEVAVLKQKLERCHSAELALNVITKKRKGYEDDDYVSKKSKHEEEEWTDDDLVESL
# T1 sequence (P51948 whole entry partner): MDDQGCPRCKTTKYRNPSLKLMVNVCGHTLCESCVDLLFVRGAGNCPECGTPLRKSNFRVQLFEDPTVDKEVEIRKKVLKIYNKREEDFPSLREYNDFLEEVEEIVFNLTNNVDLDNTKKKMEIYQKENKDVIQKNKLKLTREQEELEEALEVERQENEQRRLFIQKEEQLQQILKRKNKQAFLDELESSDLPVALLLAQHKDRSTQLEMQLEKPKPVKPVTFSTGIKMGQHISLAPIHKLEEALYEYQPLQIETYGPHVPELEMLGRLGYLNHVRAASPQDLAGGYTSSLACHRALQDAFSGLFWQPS
SMILES,IC50 (CDK7),IC50 (Jurkat cells)
"O=C(/C=C/CO)Nc1ccc(C(=O)N[C@H]2CCC[C@@H](Nc3ncc(Cl)c(-c4c[nH]c5ccccc45)n3)C2)cc1 [Compound 124, N-((1S,3R)-3-(5-chloro-4-(1H-indol-3-yl)pyrimidin-2-ylamino)cyclohexyl)-4-((E)-4-hydroxybut-2-enamido)benzamide]",< 100 nM,< 500 nM
"C=CC(=O)Nc1ccc(C(=O)N[C@H]2CCC[C@@H](Nc3ncc(Cl)c(-c4c[nH]c5ccccc45)n3)C2)c(N2CCOCC2)c1 [Compound 133, 4-acrylamido-N-((1S,3R)-3-(5-chloro-4-(1H-indol-3-yl)pyrimidin-2-ylamino)cyclohexyl)-2-morpholinobenzamide]",100 to 1000 nM,< 500 nM
"CN(C)C/C=C/C(=O)Nc1ccc(NC(=O)[C@H]2CCC[C@@H](Nc3ncc(Cl)c(-c4c[nH]c5ccccc45)n3)C2)cc1 [Compound 114, (1S,3R,E)-3-(5-chloro-4-(1H-indol-3-yl)pyrimidin-2-ylamino)-N-(4-(4-(dimethylamino)but-2-enamido)phenyl)cyclohexanecarboxamide]",< 100 nM,< 500 nM
C=CC(=O)Nc1ccc(C(=O)NC2CCCC(Nc3ncc(Cl)c(-c4sc(C)nc4C)n3)C2)cc1 (stereo not shown) [Compound 142],100 to 1000 nM,< 500 nM
"C=CC(=O)Nc1ccc(C(=O)N[C@H]2CCC[C@@H](Nc3ncc(Cl)c(-c4c[nH]c5ccccc45)n3)C2)cc1 [Compound 112, 4-acrylamido-N-((1S,3R)-3-(5-chloro-4-(1H-indol-3-yl)pyrimidin-2-ylamino)cyclohexyl)benzamide]",< 100 nM,< 500 nM
"CN(C)C/C=C/C(=O)Nc1ccc(S(=O)(=O)N[C@H]2CCC[C@@H](Nc3ncc(Cl)c(-c4c[nH]c5ccccc45)n3)C2)cc1 [Compound 123, (E)-N-(4-(N-((1S,3R)-3-(5-chloro-4-(1H-indol-3-yl)pyrimidin-2-ylamino)cyclohexyl)sulfamoyl)phenyl)-4-(dimethylamino)but-2-enamide]",100 to 1000 nM,< 500 nM
C=CC(=O)Nc1ccc(C(=O)N[C@H]2CCC[C@@H](Nc3ncc(Cl)c(-c4cn(C)c5ccccc45)n3)C2)cc1 [Compound 152],100 to 1000 nM,< 500 nM
"CN(C)C/C=C/C(=O)Nc1ccc(C(=O)N[C@H]2CCC[C@@H](Nc3ncc(Cl)c(-c4c[nH]c5ccccc45)n3)C2)cc1F [Compound 126, N-((1S,3R)-3-(5-chloro-4-(1H-indol-3-yl)pyrimidin-2-ylamino)cyclohexyl)-4-((E)-4-(dimethylamino)but-2-enamido)-3-fluorobenzamide]",< 100 nM,< 500 nM
"C=CC(=O)Nc1ccc(C(=O)N[C@H]2CCC[C@@H](Nc3ncc(Cl)c(-c4cnn5ccccc45)n3)C2)cc1 [Compound 138, 4-acrylamido-N-((1S,3R)-3-(5-chloro-4-(pyrazolo[1,5-a]pyridin-3-yl)pyrimidin-2-ylamino)cyclohexyl)benzamide]",< 100 nM,< 500 nM
"CN(C)C/C=C/C(=O)Nc1ccc(C(=O)N[C@H]2CCC[C@@H](Nc3ncc(C4CC4)c(-c4c[nH]c5ccccc45)n3)C2)cc1 [Compound 115, N-((1S,3R)-3-(5-cyclopropyl-4-(1H-indol-3-yl)pyrimidin-2-ylamino)cyclohexyl)-4-((E)-4-(dimethylamino)but-2-enamido)benzamide]",< 100 nM,< 500 nM
"O=C(/C=C/CN1CCOCC1)Nc1ccc(C(=O)N[C@H]2CCC[C@@H](Nc3ncc(Cl)c(-c4c[nH]c5ccccc45)n3)C2)cc1 [Compound 110, N-((1S,3R)-3-(5-chloro-4-(1H-indol-3-yl)pyrimidin-2-ylamino)cyclohexyl)-4-((E)-4-morpholinobut-2-enamido)benzamide]",< 100 nM,< 500 nM
"CN(C)C/C=C/C(=O)Nc1ccc(CN(C(=O)OC(C)(C)C)[C@H]2CCC[C@@H](Nc3ncc(Cl)c(-c4c[nH]c5ccccc45)n3)C2)cc1 [Compound 127, tert-butyl (1S,3R)-3-(5-chloro-4-(1H-indol-3-yl)pyrimidin-2-ylamino) cyclohexyl(4-((E)-4-(dimethylamino)but-2-enamido)benzyl)carbamate]",100 to 1000 nM,500 to 5000 nM
"CN(C)C/C=C/C(=O)Nc1ccc(C(=O)N[C@H]2CCC[C@@H](Nc3ncc(Cl)c(-c4cccnc4)n3)C2)cc1 [Compound 116, N-((1S,3R)-3-(5-chloro-4-(pyridin-3-yl)pyrimidin-2-ylamino)cyclohexyl)-4-((E)-4-(dimethylamino)but-2-enamido)benzamide]",100 to 1000 nM,< 500 nM
Cc1nc(C)c(-c2nc(NC3CCCC(NC(=O)c4ccc(NC(=O)/C=C/CN(C)C)cc4)C3)ncc2Cl)s1 (stereo not shown) [Compound 141],< 100 nM,< 500 nM
"CN(C)C/C=C/C(=O)Nc1ccc(C(=O)NC2CC(F)CC(Nc3ncc(Cl)c(-c4c[nH]c5ccccc45)n3)C2)cc1 (racemic) [Compound 119, (+/−)-N-(3-(5-chloro-4-(1H-indol-3-yl)pyrimidin-2-ylamino)-5-fluorocyclohexyl)-4-((E)-4-(dimethylamino)but-2-enamido)benzamide]",< 100 nM,< 500 nM
"CN(C)C/C=C/C(=O)Nc1ccc(C(=O)NC2CC(Nc3ncc(Cl)c(-c4c[nH]c5ccccc45)n3)CC(F)(F)C2)cc1 (racemic) [Compound 122, (+/−)-N-(5-(5-chloro-4-(1H-indol-3-yl)pyrimidin-2-ylamino)-3,3-difluorocyclohexyl)-4-((E)-4-(dimethylamino)but-2-enamido)benzamide]",< 100 nM,< 500 nM
"C[Si](C)(C)C#CC(=O)Nc1ccc(C(=O)NC23CCCC(Nc4ncc(Cl)c(-c5c[nH]c6ccccc56)n4)(C2)C3)cc1 [Compound 130, N-(5-(5-chloro-4-(1H-indol-3-yl)pyrimidin-2-ylamino)bicyclo[3.1.1]heptan-1-yl)-4-(3-(trimethylsilyl)propiolamido)benzamide]",< 100 nM,< 500 nM
"CN(C)C/C=C/C(=O)Nc1ccc(C(=O)NC23CC4CC(C2)CC(Nc2ncc(Cl)c(-c5c[nH]c6ccccc56)n2)(C4)C3)cc1 [Compound 108, (E)-N-(3-(5-chloro-4-(1H-indol-3-yl)pyrimidin-2-ylamino)tricyclo[3.3.1.1^3,7]decanyl)-4-(4-(dimethylamino)but-2-enamido)benzamide]",100 to 1000 nM,500 to 5000 nM
"CN1CCN(C/C=C/C(=O)Nc2ccc(C(=O)N[C@H]3CCC[C@@H](Nc4ncc(Cl)c(-c5c[nH]c6ccccc56)n4)C3)cc2)CC1 [Compound 111, N-((1S,3R)-3-(5-chloro-4-(1H-indol-3-yl)pyrimidin-2-ylamino)cyclohexyl)-4-((E)-4-(4-methylpiperazin-1-yl)but-2-enamido)benzamide]",< 100 nM,< 500 nM
C=CC(=O)Nc1ccc(C(=O)N[C@H]2CCC[C@@H](Nc3ncc(C4CC4)c(-c4c[nH]c5ccccc45)n3)C2)cc1 [Compound 146],100 to 1000 nM,500 to 5000 nM
CN(C)C/C=C/C(=O)Nc1ccc(C(=O)N[C@H]2C[C@@H](Nc3ncc(Cl)c(-c4c[nH]c5ccccc45)n3)CC(F)(F)C2)cc1 [Compound 139],> 1000 nM,500 to 5000 nM
C=CC(=O)Nc1ccc(C(=O)N[C@H]2CCC[C@@H](Nc3ncc(Cl)c(-c4c(C)noc4C)n3)C2)cc1 [Compound 145],< 1000 nM,< 500 nM
CN(C)C/C=C/C(=O)Nc1ccc(C(=O)NC2(C)CCCC(Nc3ncc(Cl)c(-c4c[nH]c5ccccc45)n3)C2)cc1 (stereo not shown) [compound 128],< 100 nM,< 500 nM
